Columns and labels:
Staphylococcus sp. = test: in vitro antibacterial evaluation, MIC by broth dilution; assay type: cell-based; conditions: broth dilution, 18 hours at 35° C.; for MIC Staphylococcus aureus-SMITH (GC 4543): strain GC 4543; for MIC Staphylococcus haemolyticus (GC 4546): strain GC 4546
Procedure, shortened: (§1)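 Following National Committee for Clinical Laboratory Standards recommendations (M7-A2), susceptibility was measured by dilution in Muller-Hinton II […]. Bacteria were seeded at 5×10^5 CFU/mL against compound concentrations from 64 down to 0.06 μg/mL.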

Enterococcus sp. = test: as above; assay type: cell-based; conditions: broth dilution, 18 hours at 35° C.
Procedure, shortened: as §1

Streptococcus sp. = test: as above; assay type: cell-based; conditions: broth dilution, 18 hours at 35° C.
Procedure, shortened: as §1

Escherichia coli = test: as above; assay type: cell-based; conditions: 18 hours at 35° C.
Procedure, shortened: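 Broth dilution in Muller-Hinton II medium per NCCLS standard M7-A2, with an inoculum of 5×10^5 CFU/mL and antibiotic tested over 64-0.06 μg/mL. MIC was taken as the lowest concentration inhibiting visible growth.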

[1] = anatomic pathology (histopathology of heart and kidney) in mice; assay type: in vivo; conditions: CD-1 mice, 20 mg/kg intravenously daily for 9 days, necropsy day 10, microscopic histopathology
Protocol: Samples of tissues from necropsied mice were formalin-fixed, paraffin-embedded, sectioned, stained with hematoxylin and eosin, and examined microscopically. Histopathologic findings were recorded. These findings were subjectively graded on a scale corresponding to slight, mild, moderate, marked and severe as compared to untreated controls.

CC(c1ccccc1)C1NC(=O)CNC(=O)C(CO)NC(=O)C(C(O)C2CN(Cc3ccc(-c4ccccc4)cc3)C(=N)N2C2OC(CO)C(O)C(O)C2O)NC(=O)C(C(O)C2CNC(=NCc3ccc(-c4ccccc4)cc3)N2Cc2ccc(-c3ccccc3)cc2)NC(=O)C(Cc2ccc(OC3OC(CO)C(OC4OC(CO)C(O)C(O)C4O)C(O)C3O)cc2)NC1=O (stereo not drawn) [Example 66, Cyclo[glycyl-β-methylphenylalanyl-O-(4-O-hexopyranosylhexopyranosyl)tyrosl-3-[3-(4-phenylbenzyl)-2-(4-phenylbenzyl)iminolimidazolidin-4-yl]seryl-3-[3-hexopyranosyl-2-imino-1-(4-phenylbenzyl)-imidazolidin-4-yl]serylseryl]]
0: Anatomical Pathology (Day 10), Heart [1] | Anatomical Pathology (Day 10), Kidney [1]
4 µg/mL: MIC Staphylococcus haemolyticus (GC 4546) (Staphylococcus sp.) | MIC Enterococcus avium (GC 4558) (Enterococcus sp.) | MIC Enterococcus faecium (GC 4557) (Enterococcus sp.) | MIC Escherichia coli (GC 4560) (Escherichia coli)
32 µg/mL: MIC Enterococcus faecalis (GC 2691) (Enterococcus sp.) | MIC Enterococcus faecalis (GC 3059) (Enterococcus sp.) | MIC Enterococcus faecalis (GC 4552) (Enterococcus sp.) | MIC Enterococcus faecalis (GC 6189) (Enterococcus sp.) | MIC Enterococcus faecium (GC 4556) (Enterococcus sp.) | MIC Enterococcus faecalis (GC 2691) (Enterococcus sp.; strain GC 2691) | MIC Enterococcus faecalis (GC 3059) (Enterococcus sp.; strain GC 3059) | MIC Streptococcus agalactiae (GC 4564) (Streptococcus sp.) | MIC Streptococcus pneumoniae (ATCC 6301) (Streptococcus sp.) | MIC Streptococcus pneumoniae (GC 1894) (Streptococcus sp.) | MIC Streptococcus pneumoniae (ATCC 6301) (Streptococcus sp.; strain ATCC 6301) | MIC Streptococcus pneumoniae (GC 1894) (Streptococcus sp.; strain GC 1894) | MIC Streptococcus agalactiae (GC 4564) (Streptococcus sp.; strain GC 4564)
16 µg/mL: MIC Enterococcus faecalis (ATCC 29212) (Enterococcus sp.) | MIC Enterococcus faecalis (GC 2242) (Enterococcus sp.) | MIC Enterococcus faecalis (GC 2242) (Enterococcus sp.; strain GC 2242) | MIC Streptococcus pyogenes (GC 4563) (Streptococcus sp.) | MIC Streptococcus pyogenes (GC 4563) (Streptococcus sp.; strain GC 4563)
64 µg/mL: MIC Enterococcus faecalis (GC 4554) (Enterococcus sp.) | MIC Streptococcus pneumoniae (GC 4565) (Streptococcus sp.) | MIC Streptococcus pneumoniae (GC 4565) (Streptococcus sp.; strain GC 4565)
8 µg/mL: MIC Staphylococcus aureus-SMITH (GC 4543) (Staphylococcus sp.) | MIC Enterococcus faecalis (GC 4553) (Enterococcus sp.) | MIC Enterococcus faecium (GC 2243) (Enterococcus sp.)
>128 µg/mL: MIC Escherichia coli (ATCC 25922) (Escherichia coli) | MIC Escherichia coli (GC 4559) (Escherichia coli)

CC(c1ccccc1)C1NC(=O)CNC(=O)C(CO)NC(=O)C(C(O)C2CN(Cc3ccc(C(=O)O)cc3)C(=N)N2C2OC(CO)C(O)C(O)C2O)NC(=O)C(C(O)C2CNC(=N)N2)NC(=O)C(Cc2ccc(OC3OC(CO)C(OC4OC(CO)C(O)C(O)C4O)C(O)C3O)cc2)NC1=O (stereo not drawn) [Example 69, Cyclo[glycyl-β-methylphenylalanyl-O-(4-O-hexopyranosylhexopyranosyl)tyrosyl-3-(2-iminoimidazolidin-4-yl)seryl-3-[1-(4-carboxybenzyl)-2-imino-3-hexopyranosylimidazolidin-4-yl]-serylseryl]]
>128 µg/mL: MIC Staphylococcus aureus (ATCC 29213) (Staphylococcus sp.; strain ATCC 29213) | MIC Staphylococcus aureus (GC 1131) (Staphylococcus sp.; strain GC 1131) | MIC Staphylococcus aureus (GC 3051) (Staphylococcus sp.; strain GC 3051) | MIC Staphylococcus aureus (GC 3053) (Staphylococcus sp.; strain GC 3053) | MIC Staphylococcus aureus (GC 4541) (Staphylococcus sp.; strain GC 4541) | MIC Staphylococcus aureus (GC 4542) (Staphylococcus sp.; strain GC 4542) | MIC Staphylococcus aureus-SMITH (GC 4543) (Staphylococcus sp.) | MIC Staphylococcus aureus (GC 4544) (Staphylococcus sp.; strain GC 4544) | MIC Staphylococcus aureus (GC 4545) (Staphylococcus sp.; strain GC 4545) | MIC Staphylococcus haemolyticus (GC 4546) (Staphylococcus sp.) | MIC Coagulase Negative Staphylococcus (GC 4547) (Staphylococcus sp.; strain GC 4547) | MIC Coagulase Negative Staphylococcus (GC 4548) (Staphylococcus sp.; strain GC 4548) | MIC Coagulase Negative Staphylococcus (GC 4549) (Staphylococcus sp.; strain GC 4549) | MIC Coagulase Negative Staphylococcus (GC 4551) (Staphylococcus sp.; strain GC 4551) | MIC Coagulase Negative Staphylococcus (GC 6257) (Staphylococcus sp.; strain GC 6257) | MIC Enterococcus faecalis (ATCC 29212) (Enterococcus sp.; Enterococcus faecalis (ATCC 29212)) | MIC Enterococcus faecalis (GC 4552) (Enterococcus sp.; Enterococcus faecalis (GC 4552)) | MIC Enterococcus faecalis (GC 4553) (Enterococcus sp.; Enterococcus faecalis (GC 4553)) | MIC Enterococcus faecalis (GC 4554) (Enterococcus sp.; Enterococcus faecalis (GC 4554)) | MIC Enterococcus faecalis (GC 6189) (Enterococcus sp.; Enterococcus faecalis (GC 6189)) | MIC Enterococcus faecium (GC 2243) (Enterococcus sp.; Enterococcus faecium (GC 2243)) | MIC Enterococcus faecium (GC 4556) (Enterococcus sp.; Enterococcus faecium (GC 4556)) | MIC Enterococcus faecalis (ATCC 29212) (Enterococcus sp.) | MIC Enterococcus faecalis (GC 2242) (Enterococcus sp.) | MIC Enterococcus faecalis (GC 2691) (Enterococcus sp.) | MIC Enterococcus faecalis (GC 3059) (Enterococcus sp.) | MIC Enterococcus faecalis (GC 4552) (Enterococcus sp.) | MIC Enterococcus faecalis (GC 4553) (Enterococcus sp.) | MIC Enterococcus faecalis (GC 4554) (Enterococcus sp.) | MIC Enterococcus faecalis (GC 6189) (Enterococcus sp.) | MIC Enterococcus faecium (GC 2243) (Enterococcus sp.) | MIC Enterococcus faecium (GC 4556) (Enterococcus sp.) | MIC Enterococcus faecalis (GC 2242) (Enterococcus sp.; strain GC 2242) | MIC Enterococcus faecalis (GC 2691) (Enterococcus sp.; strain GC 2691) | MIC Enterococcus faecalis (GC 3059) (Enterococcus sp.; strain GC 3059) | MIC Streptococcus pyogenes (GC 4563) (Streptococcus sp.) | MIC Streptococcus pyogenes (GC 4563) (Streptococcus sp.; strain GC 4563) | MIC Escherichia coli (ATCC 25922) (Escherichia coli) | MIC Escherichia coli (GC 4559) (Escherichia coli) | MIC Escherichia coli (GC 4560) (Escherichia coli)
128 µg/mL: MIC Enterococcus avium (GC 4558) (Enterococcus sp.; Enterococcus avium (GC 4558)) | MIC Enterococcus faecium (GC 4557) (Enterococcus sp.; Enterococcus faecium (GC 4557)) | MIC Enterococcus avium (GC 4558) (Enterococcus sp.) | MIC Enterococcus faecium (GC 4557) (Enterococcus sp.) | MIC Streptococcus agalactiae (GC 4564) (Streptococcus sp.) | MIC Streptococcus pneumoniae (ATCC 6301) (Streptococcus sp.) | MIC Streptococcus pneumoniae (GC 1894) (Streptococcus sp.) | MIC Streptococcus pneumoniae (GC 4565) (Streptococcus sp.) | MIC Streptococcus pneumoniae (ATCC 6301) (Streptococcus sp.; strain ATCC 6301) | MIC Streptococcus pneumoniae (GC 1894) (Streptococcus sp.; strain GC 1894) | MIC Streptococcus agalactiae (GC 4564) (Streptococcus sp.; strain GC 4564) | MIC Streptococcus pneumoniae (GC 4565) (Streptococcus sp.; strain GC 4565)
0: Anatomical Pathology (Day 10), Heart [1] | Anatomical Pathology (Day 10), Kidney [1]

Source: patent US6914045B2, “Glycopeptide antibiotics” (Wyeth Holdings Corporation, priority 2001, dated 2005)
